Patent US12372525B2 (priority 2013, dated 2025)

Columns and labels:
[1] = target: purified influenza H3N2 neuraminidase (Influenza A virus, UniProt O91745); format: biochemical
seasonal flu = settings: in vivo; cited from earlier work
A/Perth/211/2001 WT = format: biochemical

Sequence of purified influenza H3N2 neuraminidase (O91745 whole entry, looked up): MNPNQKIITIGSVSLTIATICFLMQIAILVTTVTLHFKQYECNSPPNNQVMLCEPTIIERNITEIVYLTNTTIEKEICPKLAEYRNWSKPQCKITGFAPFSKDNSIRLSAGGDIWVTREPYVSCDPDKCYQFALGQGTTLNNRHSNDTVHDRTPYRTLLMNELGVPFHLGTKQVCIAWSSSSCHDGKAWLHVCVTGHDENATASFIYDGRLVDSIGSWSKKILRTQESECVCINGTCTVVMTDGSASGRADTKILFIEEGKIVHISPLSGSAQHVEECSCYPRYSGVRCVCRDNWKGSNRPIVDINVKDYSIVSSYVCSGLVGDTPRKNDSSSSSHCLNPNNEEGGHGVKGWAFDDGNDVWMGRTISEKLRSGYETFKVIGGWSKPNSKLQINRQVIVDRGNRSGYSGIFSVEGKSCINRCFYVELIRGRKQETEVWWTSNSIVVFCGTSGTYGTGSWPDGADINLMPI

SMILES | level of detection (LOD) of neuraminidase with this substrate [1] | effective in prophylaxis against seasonal flu (seasonal flu) [%] | Inhibition value (A/Perth/211/2001 WT)
CC(=O)NC1C(O)CC(Oc2ccc(CCC(=O)C(F)(F)F)cc2)(C(=O)[O-])OC1C(O)C(O)CO.[Na+] (stereo not shown) [NANA-CF3] | about 10 pM |  | 
CC(=O)N[C@H]1[C@H]([C@H](O)[C@H](O)CO)OC(C(=O)O)=C[C@@H]1N=C(N)N [Zanamivir] |  | 80 | 
CCOC(=O)C1=C[C@@H](OC(CC)CC)[C@H](NC(C)=O)[C@@H](N)C1 [Oseltamivir] |  | 80 | 1.48/1.34
